Some test systems named below: SK-OV-3 ovarian; HCT-15 colon; MDA-MB-231 breast; UACC-257 melanoma; K-562 leukemia; BT-549 breast; IGROV1 ovarian; NCI/ADR-RES ovarian; CAKI-1 renal; HS 578T breast; HOP-92 NSCLC; EKVX NSCLC; A549 NSCLC; SF-539 CNS; NCI-H460 lung; CCRF-CEM leukemia; HCC-2998 colon.
Assay in all cases: NCI anticancer screen, dose series, 48 h

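These data come from cells grown in 96-well plates and exposed to compound for 48 hours at five concentrations. TGI denotes the concentration required for complete inhibition of growth.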

Consider `Cc1ccc(S(=O)(=O)n2cc(/C=C/C#N)c(-c3cn(S(=O)(=O)c4ccc(C)cc4)cc3-c3cn(S(=O)(=O)c4ccc(C)cc4)cc3/C=C/C#N)c2)cc1`, for which the TGI with SK-OV-3 ovarian, in the experiment with HCT-15 colon, with MDA-MB-231 breast, in the experiment on UACC-257 melanoma, in the experiment on K-562 leukemia and with BT-549 breast was > 100 µM throughout. Further, the TGI in the experiment with IGROV1 ovarian, in the experiment on NCI/ADR-RES ovarian, with CAKI-1 renal, in the experiment on HS 578T breast, in the experiment on HOP-92 NSCLC and in the experiment on EKVX NSCLC was > 100 µM throughout.
Consider `O=C(O)c1ccccc1CN1CCCC(C(=O)O)C1` (stereo not drawn), for which the TGI in the experiment on SK-OV-3 ovarian, in the experiment with A549 NSCLC, in the experiment with HCT-15 colon, in the experiment with MDA-MB-231 breast, in the experiment on UACC-257 melanoma and in the experiment with SF-539 CNS was > 100 µM in each case. In addition, the TGI with K-562 leukemia, in the experiment on BT-549 breast, in the experiment with IGROV1 ovarian, in the experiment on NCI/ADR-RES ovarian, in the experiment with NCI-H460 lung and in the experiment on CAKI-1 renal was > 100 µM in each case. Further, the TGI in the experiment on HS 578T breast, in the experiment with HOP-92 NSCLC and with EKVX NSCLC was > 100 µM each time.
Take `NC(N)=N/N=C/c1c(-c2ccccc2[N+](=O)[O-])nc2sccn12`: the TGI with SK-OV-3 ovarian was > 100 µM; in the experiment with A549 NSCLC, > 100 µM; in the experiment with HCT-15 colon it was > 100 µM; with CCRF-CEM leukemia it was 55 µM; in the experiment on MDA-MB-231 breast, 33.4 µM; in the experiment with UACC-257 melanoma it was 35.6 µM. The TGI is 37.6 µM in the experiment with SF-539 CNS; 33.8 µM in the experiment with K-562 leukemia; > 100 µM in the experiment with BT-549 breast; > 100 µM in the experiment on IGROV1 ovarian; > 100 µM in the experiment on NCI/ADR-RES ovarian; 39.7 µM with NCI-H460 lung. In addition, the TGI in the experiment on CAKI-1 renal, with HS 578T breast, in the experiment on HOP-92 NSCLC and in the experiment with EKVX NSCLC was > 100 µM each time.
On to `COc1ccc2c(-c3csc(-c4c[nH]c5ccc(Br)cc45)n3)c[nH]c2c1`, for which the TGI in the experiment with A549 NSCLC was > 100 µM; with HCT-15 colon, > 100 µM; in the experiment with CCRF-CEM leukemia, > 100 µM; in the experiment with MDA-MB-231 breast, 83.1 µM; in the experiment on UACC-257 melanoma, > 100 µM; in the experiment on K-562 leukemia it was > 100 µM. In addition, the TGI with BT-549 breast, with IGROV1 ovarian, with NCI/ADR-RES ovarian, with NCI-H460 lung, in the experiment on CAKI-1 renal and in the experiment on HS 578T breast was > 100 µM in each case. Moreover, the TGI in the experiment with HOP-92 NSCLC and in the experiment on EKVX NSCLC was > 100 µM throughout.
As for `COc1ccc(N2C(=O)c3cc([N+](=O)[O-])cnc3S2(=O)=O)cc1`, the TGI in the experiment on SK-OV-3 ovarian, with A549 NSCLC, with HCT-15 colon, in the experiment on CCRF-CEM leukemia, in the experiment with HCC-2998 colon and in the experiment on MDA-MB-231 breast was > 100 µM throughout. The TGI in the experiment with K-562 leukemia, in the experiment on BT-549 breast, with IGROV1 ovarian, in the experiment with NCI/ADR-RES ovarian, with NCI-H460 lung and in the experiment on HS 578T breast was > 100 µM throughout. Besides, the TGI in the experiment on HOP-92 NSCLC and in the experiment with EKVX NSCLC was > 100 µM throughout.
In the case of `C[N+]1(C)C2CC(OC(=O)C(CO)c3ccccc3)CC1C1OC12` (stereo not drawn), the TGI in the experiment on SK-OV-3 ovarian, in the experiment on A549 NSCLC, with HCT-15 colon, in the experiment on CCRF-CEM leukemia, in the experiment on MDA-MB-231 breast and in the experiment with UACC-257 melanoma was > 100 µM throughout. For the same compound, the TGI in the experiment on SF-539 CNS, with K-562 leukemia, in the experiment with BT-549 breast, in the experiment with IGROV1 ovarian, in the experiment on NCI/ADR-RES ovarian and with CAKI-1 renal was > 100 µM throughout. Also, the TGI in the experiment on HS 578T breast and with EKVX NSCLC was > 100 µM in each case.
As to `COC(=O)C(=O)C(C(=O)C(=O)Nc1ccc(Cl)c(Cl)c1)c1nc2ccc(C(=O)c3ccccc3)cc2[nH]c1=O` (stereo not drawn), the TGI in the experiment with SK-OV-3 ovarian, in the experiment on A549 NSCLC, with CCRF-CEM leukemia, in the experiment with MDA-MB-231 breast, in the experiment on UACC-257 melanoma and with SF-539 CNS was > 100 µM in each case. The TGI is 12.9 µM in the experiment on K-562 leukemia; > 100 µM in the experiment with BT-549 breast; > 100 µM in the experiment with IGROV1 ovarian; > 100 µM in the experiment with NCI/ADR-RES ovarian; > 100 µM with CAKI-1 renal; > 100 µM with HS 578T breast. The TGI in the experiment on HOP-92 NSCLC and with EKVX NSCLC was > 100 µM throughout.
In the case of `C#CCN(Cc1ccc2nc(-c3ccccc3)c(Cl)nc2c1)c1ccc(F)cc1`, the TGI in the experiment on A549 NSCLC, in the experiment on HCT-15 colon, in the experiment with CCRF-CEM leukemia, in the experiment with HCC-2998 colon, in the experiment on MDA-MB-231 breast and in the experiment with UACC-257 melanoma was > 100 µM in each case. The TGI in the experiment with SF-539 CNS, in the experiment with BT-549 breast, in the experiment with IGROV1 ovarian, in the experiment with NCI/ADR-RES ovarian, in the experiment with NCI-H460 lung and in the experiment with CAKI-1 renal was > 100 µM each time. Besides, the TGI in the experiment on HS 578T breast, in the experiment on HOP-92 NSCLC and in the experiment with EKVX NSCLC was > 100 µM throughout.
As to `Cc1nc2ccc(F)cc2c2c1CCS2`, the TGI was > 100 µM in the experiment with A549 NSCLC; > 100 µM with HCT-15 colon; > 100 µM with CCRF-CEM leukemia; > 100 µM with HCC-2998 colon; 86.9 µM with MDA-MB-231 breast; > 100 µM in the experiment on UACC-257 melanoma. The TGI is > 100 µM in the experiment with SF-539 CNS; 94.5 µM in the experiment on K-562 leukemia; > 100 µM with BT-549 breast; > 100 µM with IGROV1 ovarian; > 100 µM in the experiment on NCI/ADR-RES ovarian; > 100 µM in the experiment with NCI-H460 lung. The TGI in the experiment on HS 578T breast, in the experiment on HOP-92 NSCLC and with EKVX NSCLC was > 100 µM in each case.
As for `N#CC(C#N)=c1c(=O)c2c3ccccc3cc3cccc1c32`, the TGI in the experiment with SK-OV-3 ovarian, in the experiment with A549 NSCLC, in the experiment with HCT-15 colon, with CCRF-CEM leukemia, with HCC-2998 colon and in the experiment with MDA-MB-231 breast was > 100 µM each time. The TGI with UACC-257 melanoma, in the experiment with BT-549 breast, in the experiment on IGROV1 ovarian, in the experiment on NCI/ADR-RES ovarian, in the experiment with NCI-H460 lung and in the experiment with CAKI-1 renal was > 100 µM each time. In addition, the TGI in the experiment on HS 578T breast is 85 µM; with HOP-92 NSCLC it was > 100 µM.

(Values after PubChem BioAssay (NCI).)
